Reference: ChEMBL document CHEMBL1126222, “Investigation of conformational specificity at GPIIb/IIIa: evaluation of conformationally constrained RGD peptides” (J Med Chem, 1992)

What was measured:
[1] = biological target: T1, Integrin alpha-IIb/beta-3 (Homo sapiens, UniProt P05106+P08514); assay: Inhibition of [3H]Mba-(N-Me)Arg-Gly-Asp-Man binding to Fibrinogen Receptor from human platelets reconstituted in liposomes
[2] = biological target: T1, Integrin alpha-IIb/beta-3; assay: Inhibition of [3H]Mba-(N-Me)Arg-Gly-Asp-Man binding to fibrinogen receptor of human platelets reconstituted in liposomes
[3] = biological target: T1, Integrin alpha-IIb/beta-3; assay: Inhibition of [3H]Mba-(N-Me)Arg-Gly-Asp-Man binding to GPIIb/IIIa from human platelets reconstituted in liposomes

T1 sequence (P05106 27-788 limits assumed): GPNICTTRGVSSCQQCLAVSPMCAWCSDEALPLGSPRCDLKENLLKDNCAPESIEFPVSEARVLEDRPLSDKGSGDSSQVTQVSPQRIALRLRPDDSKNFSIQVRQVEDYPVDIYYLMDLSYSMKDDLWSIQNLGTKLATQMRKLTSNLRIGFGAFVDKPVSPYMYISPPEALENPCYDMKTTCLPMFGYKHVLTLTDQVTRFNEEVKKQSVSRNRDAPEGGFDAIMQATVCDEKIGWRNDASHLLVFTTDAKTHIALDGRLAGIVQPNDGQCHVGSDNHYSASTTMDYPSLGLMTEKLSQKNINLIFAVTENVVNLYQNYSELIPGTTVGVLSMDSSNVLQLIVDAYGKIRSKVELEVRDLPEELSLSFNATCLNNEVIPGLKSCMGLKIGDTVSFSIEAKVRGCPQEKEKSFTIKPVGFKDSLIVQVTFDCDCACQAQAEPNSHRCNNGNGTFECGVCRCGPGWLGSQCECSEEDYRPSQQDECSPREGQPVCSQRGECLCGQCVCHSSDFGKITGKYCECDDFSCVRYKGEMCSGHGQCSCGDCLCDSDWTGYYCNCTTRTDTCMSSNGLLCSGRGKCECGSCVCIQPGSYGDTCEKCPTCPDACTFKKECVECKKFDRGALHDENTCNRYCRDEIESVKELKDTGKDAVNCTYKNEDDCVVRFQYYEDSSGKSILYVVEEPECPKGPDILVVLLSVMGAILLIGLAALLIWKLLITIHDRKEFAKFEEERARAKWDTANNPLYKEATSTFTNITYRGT
T1 sequence (P08514 32-887 limits assumed): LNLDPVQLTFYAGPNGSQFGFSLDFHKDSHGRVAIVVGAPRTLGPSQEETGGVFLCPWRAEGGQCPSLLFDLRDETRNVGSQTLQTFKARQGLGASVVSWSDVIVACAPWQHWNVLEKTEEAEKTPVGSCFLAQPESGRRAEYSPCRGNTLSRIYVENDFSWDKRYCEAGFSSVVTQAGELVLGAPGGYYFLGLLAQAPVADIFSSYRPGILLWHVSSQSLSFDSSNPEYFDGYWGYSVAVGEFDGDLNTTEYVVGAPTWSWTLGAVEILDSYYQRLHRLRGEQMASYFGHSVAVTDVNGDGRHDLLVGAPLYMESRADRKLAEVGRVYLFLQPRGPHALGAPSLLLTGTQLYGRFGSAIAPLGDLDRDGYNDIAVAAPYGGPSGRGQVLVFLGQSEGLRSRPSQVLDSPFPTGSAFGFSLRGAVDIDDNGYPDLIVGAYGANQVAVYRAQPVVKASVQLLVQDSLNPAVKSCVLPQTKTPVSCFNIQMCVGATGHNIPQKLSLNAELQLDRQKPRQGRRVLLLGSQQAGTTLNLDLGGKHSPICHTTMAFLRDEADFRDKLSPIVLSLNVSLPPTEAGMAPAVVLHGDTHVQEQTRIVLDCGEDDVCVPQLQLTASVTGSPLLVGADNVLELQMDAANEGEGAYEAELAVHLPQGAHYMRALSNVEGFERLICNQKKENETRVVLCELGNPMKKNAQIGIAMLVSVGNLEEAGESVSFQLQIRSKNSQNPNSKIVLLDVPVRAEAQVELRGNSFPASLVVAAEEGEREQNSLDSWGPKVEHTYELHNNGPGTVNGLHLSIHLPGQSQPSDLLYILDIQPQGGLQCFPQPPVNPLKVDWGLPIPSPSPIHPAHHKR
T1 sequence (P08514 891-1039 limits assumed): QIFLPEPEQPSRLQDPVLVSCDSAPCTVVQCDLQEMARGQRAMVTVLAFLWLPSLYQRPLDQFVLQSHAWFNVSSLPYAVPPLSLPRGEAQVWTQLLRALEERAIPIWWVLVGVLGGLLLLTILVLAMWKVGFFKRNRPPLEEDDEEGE

Row | SMILES | Ki [2] | Ki [3] | also measured
1 | CC(=O)N[C@@H](CS)C(=O)N[C@@H](CCCN=C(N)N)C(=O)NCC(=O)N[C@@H](CC(=O)O)C(=O)NC(C(N)=O)C(C)(C)S (stereo in doubt) | – | – | Ki [1]: 3.13 µM
2 | CC(=O)N[C@@H](CS)C(=O)N(C)[C@@H](CCCN=C(N)N)C(=O)NCC(=O)N[C@@H](CC(=O)O)C(=O)N[C@H](C(N)=O)C(C)(C)S | 0.175 µM | – | –
3 | CC(=O)N[C@@H](CS)C(=O)N[C@H](CCCN=C(N)N)C(=O)NCC(=O)N[C@@H](CC(=O)O)C(=O)N[C@H](C(N)=O)C(C)(C)S | 3.3 µM | – | –

More lines, main results first:

Row | Ki [2] | Ki [3] | SMILES | also measured
4 | 0.004 µM | – | CN(C(=O)c1ccccc1S)[C@@H](CCCNC(=N)N)C(=O)NCC(=O)N[C@@H](CC(=O)O)C(=O)Nc1ccccc1S | –
5 | – | > 100 µM | N=C(N)NCCC[C@@H]1NC(=O)[C@@H]2CCCN2C(=O)CNC(=O)[C@H]2CCCN2C(=O)[C@H](CC(=O)O)NC(=O)CNC1=O | –
6 | – | 18.5 µM | N=C(N)NCCC[C@@H]1NC(=O)[C@@H]2CCCN2C(=O)[C@@H](Cc2ccccc2)NC(=O)CNC(=O)[C@H](CC(=O)O)NC(=O)CNC1=O | –
